Results as given in US8349368B2, “Compositions and methods for treating vaginal infections and pathogenic vaginal biofilms” (priority 2007, dated 2013).
Values after ≈ are worked out from the molar mass of the structure shown. “Also recorded” adds a separate entry of the source.

Experiments:
[1] = including vaginal secretions and tissues; oral dosing, maximum daily dose 400 mg; cited from earlier work
BV biofilm = details: oral 500 mg twice daily for 7 days, cited from earlier work
G. vaginalis = assay: planktonic MIC, standard MIC methodologies; format: cell-based, G. vaginalis ATCC #14018; details: Gardnerella vaginalis
Procedure: (§1) As a prelude to the biofilm experiments, the planktonic (i.e., free-floating vs. biofilm-associated) MIC values for boric acid and EDTA against both test organisms were established utilizing standard MIC methodologies. In contrast to C. albicans, the planktonic MIC values for boric acid and EDTA against G. vaginalis had not previously been reported.
(§2) In preparation of the biofilm experiments relating to the invention, overnight cultures of C. albicans and G. vaginalis were prepared by adding 1 mL frozen stock to 9 mL growth media (either G. vaginalis ATCC #14018 in 50% BHI broth+1% starch, or C. albicans ATCC #96113 in 50% SD broth+1% sucrose) and incubated for 24 hours at 37° C., C. albicans was grown under atmospheric conditions while G. vaginalis was grown with the addition of 5% CO2.
(§3) Next, the 24 biofilm-covered coupons were aseptically removed from the CDC reactor and placed in a 24-well plate, with each well containing 2 mL of test solution. The test solutions were run in triplicate and included varied concentrations of boric acid (BA) and EDTA or a combination thereof. […] Fluconazole at a concentration of 8 μg/mL was selected as the treatment control for C. albicans.

G. vaginalis biofilm = assay: biofilm disruption in CDC biofilm reactor; format: cell-based, G. vaginalis ATCC #14018; details: metronidazole 192 μg/mL, 24-hour treatment
Procedure: as §1, §2, §3

G. vaginalis isolates = details: conventional planktonic MIC testing; cited from earlier work
C. albicans = assay: planktonic MIC, standard MIC methodologies; details: Candida albicans, read-out: planktonic MIC
[2] = tested on: common bacterial pathogens; details: literature (Meers 1990); cited from earlier work
[3] = tested on: clinical isolates of C. albicans as well as non-albicans species; details: literature (Shubair 1990; Prutting 1998); cited from earlier work
recurrent BV = tested on: recurrent BV
Procedure: A retrospective case review was conducted of the use of boric acid in a series of patients with recurrent BV. Boric acid was employed as an antimicrobial agent as part of a 6-month sequential treatment protocol.
With the exception of boric acid, all of the other antimicrobials used were FDA approved for BV. The 6-month protocol was as follows: • 1. Induction: oral metronidazole or tinidazole twice daily for 7-10 days • 2. Boric acid treatment: 600-mg gelatin capsule inserted vaginally daily for 21 days • 3.

OC(Cn1cncn1)(Cn1cncn1)c1ccc(F)cc1F [fluconazole, Fluconazole]
drug levels achieved in biologic fluids and tissues [1]: 4.12-8.08 μg/mL

Cc1ncc([N+](=O)[O-])n1CCO [metronidazole]
vaginal biopsy result (fluorescent in situ hybridization) (BV biofilm; G. vaginalis and Atopobium): persistent accumulation of core pathogenic bacteria
clinical response by standard clinical and microbiologic methods (BV biofilm; each time point): resolution of BV
MIC (G. vaginalis): 128 µg/mL
effect of active control on G. vaginalis biofilm (G. vaginalis biofilm): little impact; also recorded: minimal impact
susceptibility of G. vaginalis isolates (G. vaginalis isolates): good susceptibility

O=C(O)CN(CCN(CC(=O)O)CC(=O)O)CC(=O)O [EDTA, ethylene-diamine-tetra-acetic acid]
MIC (G. vaginalis): 190 µg/mL
MIC (C. albicans): 780 µg/mL (≈ 2.67 mM)

OB(O)O [boric acid]
antibacterial activity in vitro [2]: bacteriostatic activity
MIC (G. vaginalis): 3120 µg/mL
antifungal activity in vitro [3]: weakly fungistatic
MIC (C. albicans): 1560 µg/mL (≈ 25.2 mM)
treatment failures during boric acid therapy (recurrent BV; 600-mg vaginal capsule daily for 21 days): none of the treatment failures occurred during boric acid therapy
patients remaining cured (recurrent BV; at 9 months (3 months after maintenance)): Sixty-seven
patients clinically cured (asymptomatic and negative for Amsel's criteria) (recurrent BV; end of 6 months, nitroimidazole induction, boric acid 600 mg vaginally daily 21 days, metronidazole gel maintenance, 24/31): 77%
secondary yeast infection or discontinuation because of adverse event or intolerance (recurrent BV; in vivo): none of the patients experienced a secondary yeast infection or discontinued
median duration of remission (recurrent BV; retrospective case series): 8.7 months
